Source: patent EP0229718A2, “Labelling blood cells” (AMERSHAM INTERNATIONAL plc, priority 1986, dated 1987)

Columns and labels:
inflammatory disease = assay: Imaging of inflammatory disease in patients with labelled leucocytes (Example 6); type: in vivo
Procedure: (§1) Hexamethylpropylene-amineoxime (HMPAO) forms a lipid-soluble neutral complex with ^99mTc which is rapidly incorporated into leucocytes in vitro. In six patients with suspected or known inflammatory disease, a "mixed" leucocyte suspension isolated from 85 ml blood anticoagulated with acid-citrate-dextrose was labelled by ^99mTc-HMPAO with a mean efficiency of 47%, of which 78% was taken up by granulocytes. […] Four patients also received ¹¹¹In-labelled "pure" granulocytes.
(§2) This experiment is described in more detail in The Lancet, October 25 1986, pages 946-949.

[1] = tested on: "mixed" leucocyte suspension; assay: In vitro labelling of a mixed leucocyte suspension from patients (Example 6); type: cell-based
Procedure: as §1, §2

Question: Which results are given for C/C(=N\[O-])[C@@H](C)[N-]CC(C)(C)C[N-][C@H](C)/C(C)=N/O.[O]=[99Tc+3] (racemic) [^99mTc-HMPAO]?
Answer: granulocyte recovery in blood (inflammatory disease; at 30-40 min, mean): 32%; image detail compared with ¹¹¹In-labelled "pure" granulocytes (inflammatory disease; four patients also received ¹¹¹In-labelled granulocytes): comparable or superior to the ¹¹¹In images; detection of inflammatory disease by imaging (inflammatory disease; six patients, from 30 min (five patients) or 3 h (sixth), remained positive at 20-24 h): All six patients were positive for inflammatory disease; retention of label in granulocytes in vitro ([1]; elution compared with other cell types): remained firmly labelled; share of the label taken up by granulocytes ([1]; of the cell-bound label): 78%; mean labelling efficiency ([1]; six patients, leucocytes from 85 ml blood anticoagulated with acid-citrate-dextrose): 47%
